Measurements reported in US20090246292A1, “ANTIMICROBIAL FORMULATIONS COMPRISING A QUINONE AND A COPPER SALT” (priority 2006, published 2009).
“And” between values parts separate entries of the source, which are not always exact repeats. Equal entries are not always repeated.

Columns and labels:
[1] = test system: P. acnes PRP-023; experiment: Disc diffusion assay (DDA), also supplemented; format: cell-based, Propionibacterium acnes; details: 200 μg per disc
Experimental: (§9) The propionibacteria were cultured and maintained on Wilkins-Chalgren Anaerobe Medium (agar and broth) at pH 6.0; all cultures were incubated anaerobically at 37° C. for 72 hours.
(§10) A sterile paper disc was impregnated with a sample of the test compound in a suitable solvent and 30 minutes allowed for the solvents to evaporate (where possible). The disc was then placed on an agar plate onto which the test micro-organism had been inoculated. The plate was then incubated under the conditions described above, following which it was examined visually for signs of bacterial growth. […] The diameter of this zone of “inhibition” was measured using a ProtoCOL™ automated zone sizer (Synbiosis, Cambridge, UK).
(§11) For assays using Propionibacterium spp. strains the supplements used in the examples below were lipid (either Tween™ 80 or triolein, both at 1% v/v) and sodium chloride (100 mM).

[2] = test system: P. acnes PRP-039; experiment: Disc diffusion assay (DDA), also supplemented; format: cell-based, Propionibacterium acnes; details: 200 μg per disc
[3] = test system: P. acnes PRP-017; experiment: Disc diffusion assay (DDA), also supplemented; format: cell-based, Propionibacterium acnes; details: 200 μg per disc
[4] = test system: P. granulosum PRP-005; experiment: Disc diffusion assay (DDA), also supplemented; format: cell-based; details: 200 μg per disc
Experimental: as §9, §10, §11

[5] = test system: P. granulosum PRP-055; experiment: Disc diffusion assay (DDA), also supplemented; format: cell-based; details: 200 μg per disc
Experimental: as §9, §10, §11

[6] = test system: P. granulosum PRP-055; details: P. granulosum PRP-055 (resistance None); agar dilution
Experimental: (§1) This is a standard international method for quantitatively assessing the antimicrobial activity of a compound in a solid medium. […] A set amount of these antimicrobial stock solutions was then added to molten agar medium (ca. 55° C.), mixed thoroughly, poured into sterile Petri dishes and allowed to cool/set. The culture medium was as described above.
(§2) A Multipoint™ Inoculator (AQS Manufacturing Ltd, UK) was used to inoculate the plates by spotting the inocula onto the surface of the agar, delivering approximately 1 to 2 μl per spot (yielding 10^5 CFU (colony forming units) per spot).
(§3) The plate(s) were then incubated under the conditions described above, following which they were examined visually for signs of bacterial growth. The MIC value was ascertained when there was a marked reduction in, or total loss of, growth on the test plate at the lowest concentration as compared to that of the growth on the control plate.

[7] = test system: P. acnes PRP-004; details: P. acnes PRP-004 (resistance Tet); agar dilution
Experimental: as §1, §2, §3

[8] = test system: P. granulosum PRP-006; details: P. granulosum PRP-006 (resistance MLS); agar dilution
Experimental: as §1, §2, §3

[9] = test system: P. acnes PRP-010; details: P. acnes PRP-010 (resistance MLSK); agar dilution
Experimental: as §1, §2, §3

[10] = test system: P. acnes PRP-003; experiment: Disc diffusion assay (DDA), also supplemented; format: cell-based, Propionibacterium acnes; details: 200 μg per disc
Experimental: as §9, §10, §11

[11] = test system: P. acnes NCTC 737; experiment: Minimum bactericidal concentration (MBC) assay; format: cell-based, Propionibacterium acnes
Experimental: (§4) (b) Minimum Bactericidal Concentration (MBC) Assay
(§5) Following incubation they were examined visually for bacterial growth.

[12] = test system: P. granulosum PRP-021; experiment: Disc diffusion assay (DDA), also supplemented; format: cell-based; details: 200 μg per disc
Experimental: as §9, §10, §11

[13] = test system: S. aureus ATCC 29213; experiment: Minimum inhibitory concentration (MIC) assay; format: cell-based, Staphylococcus aureus
Description: (§6) (a) Minimum Inhibitory Concentration (MIC) Assay
(§7) The culture media were as described above.
(§8) The assays included both negative (culture medium with no micro-organisms) and positive (culture medium plus diluting solvent plus micro-organism) controls.

[14] = test system: P. acnes NCTC 737; experiment: Disc diffusion assay (DDA), also supplemented;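 note: paper disc carrying compound placed on inoculated Wilkins-Chalgren Anaerobe agar pH 6.0, with lipid or NaCl supplement where listed, anaerobic 37 °C for 72 h, inhibition zone diameter read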
[15] = test system: S. aureus ATCC 29213; experiment: Synergy disc diffusion assay (SDDA), also supplemented;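 note: disc diffusion on Mueller-Hinton agar at pH 7.2, aerobic incubation at 37 °C lasting 19-20 h, two compounds assessed jointly for combined antimicrobial effect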
Experimental: (e) Synergy Disc Diffusion Assay (SDDA)
This is a variation on the DDA method, in which two compounds are tested together for their combined antimicrobial activity.
Two test compounds A and B were placed on a single paper disc and the above described DDA procedure repeated.
(f) Supplemented Disc Diffusion Assays
For assays using S. aureus ATCC 29213 the supplements used were sodium chloride (100 mM), lipid (Tween™ 80 at 1% v/v) and horse serum (5% v/v).

[16] = test system: P. granulosum NCTC 11865; experiment: Disc diffusion assay (DDA), also supplemented; format: cell-based; details: 200 μg per disc
Experimental: as §9, §10, §11

[17] = test system: P. acnes PRP-101; experiment: Disc diffusion assay (DDA), also supplemented; format: cell-based, Propionibacterium acnes; details: 200 μg per disc
Experimental: as §9, §10, §11

[18] = test system: P. acnes NCTC 737; experiment: Minimum inhibitory concentration (MIC) assay; format: cell-based, Propionibacterium acnes
Description: as §6, §7, §8

[19] = test system: P. acnes PRP-004; experiment: Disc diffusion assay (DDA), also supplemented; format: cell-based, Propionibacterium acnes; details: 200 μg per disc
Experimental: as §9, §10, §11

[20] = test system: P. acnes PRP-026; experiment: Disc diffusion assay (DDA), also supplemented; format: cell-based, Propionibacterium acnes; details: 200 μg per disc
Experimental: as §9, §10, §11

[21] = test system: P. acnes PRP-102; experiment: Disc diffusion assay (DDA), also supplemented; format: cell-based, Propionibacterium acnes; details: 200 μg per disc
Experimental: as §9, §10, §11

[22] = test system: S. aureus ATCC 29213; experiment: Minimum bactericidal concentration (MBC) assay; format: cell-based, Staphylococcus aureus
Experimental: as §4, §5

[23] = test system: P. acnes PRP-010; experiment: Disc diffusion assay (DDA), also supplemented; format: cell-based, Propionibacterium acnes; details: 200 μg per disc
Experimental: as §9, §10, §11

[24] = test system: P. granulosum PRP-043; experiment: Disc diffusion assay (DDA), also supplemented; format: cell-based; details: 200 μg per disc
Experimental: as §9, §10, §11

[25] = test system: panel of different propionibacterium strains; experiment: MIC by agar dilution and (S)DDA, whole panel; format: cell-based, Propionibacterium spp; details: compound alone; also under supplemented conditions
Experimental: For (S)DDA experiments 200 μg of each test compound was added per disc. […] MIC experiments were performed in duplicate, DDA experiments as single replicates only. SDDA experiments were conducted in triplicate.
The activity of the salt (MIC by agar dilution and DDA) was also determined against a panel of different propionibacterium strains. Supplemented DDA experiments were also carried out. […] DMSO was used as the diluting solvent. MIC experiments were performed in duplicate and DDA experiments as single replicates only.

Structure (SMILES): O.O.O.O.O.O=S(=O)([O-])[O-].[Cu+2] [Copper (II) sulphate pentahydrate]
- DDA + salt [1]: 51.38 mm
- DDA + lipid ([1]; 1% (v/v) triolein): 47.43 mm
- DDA ([1]; single replicate): 47.13 mm
- DDA ([1]; Table 12 series): 60.95 mm
- DDA + salt [2]: 61.72 mm
- DDA + lipid ([2]; 1% (v/v) triolein): 59.29 mm
- DDA ([2]; single replicate): 53.51 mm
- DDA ([2]; Table 12 series): 56.35 mm
- DDA + salt [3]: 56.85 mm
- DDA + lipid ([3]; 1% (v/v) triolein): 55.03 mm
- DDA ([3]; single replicate): 51.38 mm
- DDA ([3]; Table 12 series): 46.31 mm
- DDA + salt [4]: 29.19 mm
- DDA + lipid ([4]; 1% (v/v) triolein): 24.32 mm
- DDA ([4]; single replicate): 24.02 mm
- DDA ([4]; Table 12 series): 22.48 mm
- DDA + salt [5]: 28.88 mm
- DDA + lipid ([5]; 1% (v/v) triolein): 27.97 mm
- DDA ([5]; single replicate): 27.67 mm
- DDA ([5]; Table 12 series): 31.78 mm
- MIC [6]: 62.5 µg/mL
- MIC [7]: 7.8 µg/mL
- MIC [8]: 62.5 µg/mL
- MIC [9]: 7.8 µg/mL
- DDA + salt [10]: 51.99 mm
- DDA + lipid ([10]; 1% (v/v) triolein): 45.91 mm
- DDA ([10]; single replicate): 52.60 mm
- DDA ([10]; Table 12 series): 50.18 mm
- MBC [11]: 125 µg/mL
- DDA + salt [12]: 32.84 mm
- DDA + lipid ([12]; 1% (v/v) triolein): 28.28 mm
- DDA ([12]; single replicate): 27.67 mm
- DDA ([12]; Table 12 series): 29.59 mm
- MIC [13]: >250 µg/mL
- DDA [14]: 49.75 mm and 42.05 (±1.16) mm
- DDA + lipid [14]: 44.03 mm
- DDA + salt [14]: 50.28 mm
- DDA + salt & lipid [14]: 49.96 mm and 49.54 (±1.34) mm
- SDDA area increase [15]: 88.33%
- SDDA increase [15]: 15.05 mm
- SDDA with TBHQ [15]: 55.47 mm
- SS SDDA area increase [15]: 10.90%
- SS SDDA increase [15]: 2.32 mm
- SS SDDA with TBHQ [15]: 46.00 mm
- DDA + salt [16]: 48.34 mm
- DDA + lipid ([16]; 1% (v/v) triolein): 41.65 mm
- DDA ([16]; single replicate): 48.34 mm
- DDA ([16]; Table 12 series): 53.32 mm
- DDA + salt [17]: 53.21 mm
- DDA + lipid ([17]; 1% (v/v) triolein): 55.03 mm
- DDA ([17]; single replicate): 45.30 mm
- DDA ([17]; Table 12 series): 43.49 mm
- MIC [18]: 15.6 µg/mL
- MIC/MBC ratio [18]: 0.125
- DDA + salt [19]: 52.60 mm
- DDA + lipid ([19]; 1% (v/v) triolein): 45.61 mm
- DDA ([19]; single replicate): 51.08 mm
- DDA ([19]; Table 12 series): 44.85 mm
- DDA + salt [20]: 52.90 mm
- DDA + lipid ([20]; 1% (v/v) triolein): 53.21 mm
- DDA ([20]; single replicate): 51.08 mm
- DDA ([20]; Table 12 series): 56.14 mm
- DDA + salt [21]: 49.25 mm
- DDA + lipid ([21]; 1% (v/v) triolein): 50.77 mm
- DDA ([21]; single replicate): 46.52 mm
- DDA ([21]; Table 12 series): 51.65 mm
- MBC [22]: >250 µg/mL
- DDA + salt [23]: 62.33 mm
- DDA + lipid ([23]; 1% (v/v) triolein): 46.82 mm
- DDA ([23]; single replicate): 63.24 mm
- DDA ([23]; Table 12 series): 46.73 mm
- DDA + salt [24]: 50.17 mm
- DDA + lipid ([24]; 1% (v/v) triolein): 41.35 mm
- DDA ([24]; single replicate): 46.82 mm
- DDA ([24]; Table 12 series): 56.56 mm
- activity against propionibacterium strains tested (in words) [25]: excellent level of activity
